Values joined by “and” are separate entries in the source; they are usually repeats but may differ in a detail not shown here. Equal values may be shown once.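 Grown in 96-well plates, cells were treated for 48 hours with each compound at five concentrations. Insufficient inhibition: endpoint recorded as highest concentration tested. At the GI50, growth is halved. TGI is the concentration that stops growth completely.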 *1 amine or outer side, *2 acyl side, *3 side chain or, on linkers, in order; H or OH if unused. Where a SMILES comes first, the peptide text is derived from it. [ ]: non-standard residue; d: D form. The star is where a group is joined. X31 = CC(=O)N(C)SCC(N[*:1])C(=O)[*:2]; Fmoc = O=C(OCC1c2ccccc2-c2ccccc21)*; For = O=C*
What was measured:
Assay in all cases: NCI anticancer screen, dose series, 48 h
SNB-75 CNS = test system: SNB-75 CNS
MOLT-4 leukemia = test system: MOLT-4 leukemia
SN12C renal = test system: SN12C renal
MCF7 breast = test system: MCF7 breast
UO-31 renal = test system: UO-31 renal
NCI-H522 lung = test system: NCI-H522 lung
PC-3 prostate = test system: PC-3 prostate
HS 578T breast = test system: HS 578T breast
NCI-H226 lung = test system: NCI-H226 lung
CCRF-CEM leukemia = test system: CCRF-CEM leukemia
SK-OV-3 ovarian = test system: SK-OV-3 ovarian
COLO 205 colon = test system: COLO 205 colon
TK-10 renal = test system: TK-10 renal
K-562 leukemia = test system: K-562 leukemia

| Structure (SMILES) | TGI (SNB-75 CNS) | TGI (MOLT-4 leukemia) [µM] | TGI (SN12C renal) | TGI (MCF7 breast) | TGI (UO-31 renal) [µM] | TGI (NCI-H522 lung) | TGI (PC-3 prostate) | TGI (HS 578T breast) | TGI (NCI-H226 lung) | TGI (CCRF-CEM leukemia) | TGI (SK-OV-3 ovarian) | TGI (COLO 205 colon) | TGI (TK-10 renal) | TGI (K-562 leukemia) | GI50 (PC-3 prostate) [µM] | GI50 (HS 578T breast) [µM] |
| --- | --- | --- | --- | --- | --- | --- | --- | --- | --- | --- | --- | --- | --- | --- | --- | --- |
| COc1cccc(C(=O)N[C@@H]2[C@H](O)[C@@H](CO)O[C@H]2n2cnc3c(N)ncnc32)c1 | > 100 µM | > 100 | > 100 µM | > 100 µM | > 100 | > 100 µM | > 100 µM | > 100 µM | > 100 µM | > 100 µM | > 100 µM | > 100 µM | > 100 µM | > 100 µM |  |  |
| COC(=O)C1=NN2c3ccccc3CN([C@@H](C)c3ccccc3)C(=O)[C@H]2[C@@H]1C | 95 µM | > 100 | > 100 µM | > 100 µM | > 100 | > 100 µM | > 100 µM | > 100 µM | > 100 µM | > 100 µM | > 100 µM | 66.8 µM | > 100 µM | > 100 µM |  |  |
| N#CCN(Cc1ccccc1)[C@@H]1CCC[C@]1(O)C#Cc1ccc2c(c1)OCO2 | > 100 µM | 57.1 |  | 37.9 µM | > 100 | 33.7 µM | 50.7 µM | 37.2 µM | 33.6 µM | 48.1 µM | 90.1 µM | 32.3 µM | 57.2 µM | 60.4 µM |  |  |
| O=C1/C(=C/c2ccc(Cl)cc2)Sc2scc(-c3cccc([N+](=O)[O-])c3)[n+]21 | 5.49 µM | 3.9 | 11.9 µM | > 40.7 µM | 15.5 | 2.01 µM | 20.6 µM | 43.6 µM | > 100 µM | 1.18 µM | 23.6 µM | 4.48 µM | 5.07 µM | 2.24 µM |  |  |
| C=CC[C@H]1[C@H](O[Si](C)(C)C(C)(C)C)C=CC(=O)[C@@H]1CC(=O)OCC | 30.1 µM | 48 | 29.9 µM | 23.7 µM | 25.6 | 26.1 µM | 21.3 µM | 43.4 µM | 29.2 µM | 29.9 µM | 34.1 µM | 28.6 µM | 28 µM | 20.4 µM |  |  |
| CN1CCCC(C(=O)OCC(=O)C2(O)CCC3C4CCC5=CC(=O)CCC5(C)C4C(O)CC32C)C1 (configuration not stated) | 17.5 µM | 48.4 | 24 µM | > 65.6 µM | 25.4 | 45.3 µM | 30.7 µM | > 82.9 µM | 33.9 µM | 35.6 µM | 45.6 µM | 32.9 µM | 42.2 µM | 28.7 µM |  |  |
| CC(C)(CN)SCc1ccccc1 | > 100 µM | > 100 | > 100 µM | > 100 µM | > 100 | > 100 µM | > 100 µM | > 100 µM | > 100 µM | > 100 µM | > 100 µM | > 100 µM | > 100 µM | > 100 µM |  |  |
| CC(=O)N(C)SCC(NC(=O)C(Cc1ccccc1)NC(=O)OCC1c2ccccc2-c2ccccc21)C(=O)NC(Cc1ccccc1)C(=O)NC(Cc1cn(C=O)c2ccccc12)C(=O)NC(CCCCNC(=O)OCC1c2ccccc2-c2ccccc21)C(=O)NC(C(=O)NC(CSN(C)C(C)=O)C(=O)NC(C(N)=O)C(C)O)C(C)O (configuration not stated) (Fmoc-F[X31]FW(For)K(Fmoc)T[X31]T-NH2; configuration not given here) | > 100 µM | > 100 | > 100 µM | > 100 µM | 70.2 | > 100 µM | > 100 µM | > 100 µM | > 100 µM | > 100 µM | > 100 µM | > 100 µM | 67.5 µM | > 100 µM |  |  |
| CC(C)OP(=O)(OC(C)C)C(Nc1cccc(C(F)(F)F)c1)c1ccccc1 (configuration not stated) | > 100 µM | 65.5 | > 100 µM | > 100 µM | > 100 | > 100 µM | > 100 µM | > 100 µM | > 100 µM | > 100 µM | > 100 µM | 84 µM | > 100 µM | > 100 µM |  |  |
| CC/C=C/C(/C=C/C[C@]1(CC)C[C@H](CC)[C@H](CC(=O)O)OO1)CC (some centres not stated) | 15.4 µM |  | 14.7 µM | 6.62 µM | 0.947 | 3.44 µM | 3.69 µM | 4.85 µM | 57.9 µM | 1.95 µM | 19.2 µM | 3.86 µM | 3.69 µM | > 29.8 µM |  |  |
| CNc1ncnc2c1cnn2Cc1cn(CCCCO)nn1 |  | > 100 | > 100 µM | > 100 µM | > 100 | > 100 µM | > 100 µM | > 100 µM | > 100 µM | > 100 µM | > 100 µM | > 100 µM | > 100 µM | > 100 µM |  |  |
| C(=N/NC1=NCCN1)/c1c2ccccc2c(/C=N\NC2=NCCN2)c2ccccc12 | 0.054 µM and 0.426 µM and 0.44 µM |  | 0.545 µM and 1.72 µM and 1.94 µM | 0.788 µM and 3.14 µM and 3.88 µM |  | 0.214 µM and 0.262 µM and 0.387 µM | 0.348 µM and 0.422 µM | 0.262 µM and 0.591 µM | 0.352 µM and 0.239 µM and 0.445 µM | 1.92 µM and 1.13 µM and 1.33 µM | 0.526 µM and 1.82 µM and 3.48 µM | 0.366 µM and 0.609 µM and 1.41 µM | 4.73 µM and 12.9 µM | 3.63 µM and 4.43 µM and 1.7 µM | 0.0776 | 0.0844 |
| Cc1ccc(-n2cc(-c3ccc(Cl)cc3)c(C#N)c2N)cc1 | 47.9 µM |  | 28 µM | 28.2 µM | 26.5 | 24.7 µM | 25.4 µM | 17.2 µM | 31.7 µM | > 100 µM | 43.4 µM | 27.1 µM | 28.2 µM | 47.9 µM |  |  |
| CC(=O)Nc1nnc(S(=O)(=O)NC(=S)Nc2ccc(Cl)cc2)s1 | > 100 µM | > 100 | > 100 µM | > 100 µM | > 100 | > 100 µM | > 100 µM | > 100 µM |  | > 100 µM | > 100 µM | > 100 µM | > 100 µM | > 100 µM |  |  |
| O=C(O)CO/N=C1/C(c2c(O)[nH]c3ccccc23)=Nc2ccccc21 | 74.4 µM | > 100 | > 100 µM | > 100 µM | > 100 | > 100 µM | > 100 µM | > 100 µM |  | > 100 µM | 68.1 µM | > 100 µM | > 100 µM | > 100 µM |  |  |
| COC(=O)[C@@H]1[C@H](O)CC[C@H]2[C@@]1(C)CC[C@@H](C)[C@]2(COC(C)=O)CC(=O)c1ccoc1 | > 50 µM | > 50 | > 50 µM | > 50 µM | > 50 | > 50 µM | > 50 µM | > 50 µM | > 50 µM | > 50 µM | > 50 µM | > 50 µM | > 50 µM |  |  |  |
